What was measured:
[1] = target: Indoleamine 2,3-dioxygenase 1 (Homo sapiens, UniProt P14902); assay: Inhibition of IDO1 (unknown origin) expressed in human HeLa cells; assay type: cell-based
[2] = target: Voltage-gated inwardly rectifying potassium channel KCNH2 (Homo sapiens, UniProt Q12809); assay: Inhibition of hERG at 10 uM relative to control; assay type: toxicity; conditions: 10 µM
[3] = Metabolic stability in rat liver microsomes assessed as compound remaining at 0.5 uM incubated for 10 mins relative to control; assay type: ADME, Microsome; conditions: microsomes, 10 min, 0.5 µM
Cytochrome P450 2B6 = target: T1, Cytochrome P450 2B6 (Homo sapiens, UniProt P20813); assay: Inhibition of CYP2B6 (unknown origin); assay type: ADME
T1 sequence (P20813 whole entry): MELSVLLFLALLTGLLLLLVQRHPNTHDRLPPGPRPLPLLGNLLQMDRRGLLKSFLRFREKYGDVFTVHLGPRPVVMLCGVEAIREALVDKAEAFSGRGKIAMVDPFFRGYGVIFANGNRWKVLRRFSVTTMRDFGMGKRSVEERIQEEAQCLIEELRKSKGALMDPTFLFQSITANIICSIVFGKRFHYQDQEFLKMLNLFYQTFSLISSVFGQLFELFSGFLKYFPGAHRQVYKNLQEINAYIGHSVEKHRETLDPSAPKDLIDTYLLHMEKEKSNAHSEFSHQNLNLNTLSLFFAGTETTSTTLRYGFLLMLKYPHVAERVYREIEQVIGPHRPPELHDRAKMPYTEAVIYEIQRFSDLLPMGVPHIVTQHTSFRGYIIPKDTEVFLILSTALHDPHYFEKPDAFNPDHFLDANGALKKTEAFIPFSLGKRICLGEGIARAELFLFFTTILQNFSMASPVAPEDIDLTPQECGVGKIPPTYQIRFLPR

[4] = Metabolic stability in mouse liver microsomes assessed as compound remaining at 0.5 uM incubated for 10 mins relative to control; assay type: ADME, Microsome; conditions: microsomes, 10 min, 0.5 µM
[5] = Metabolic stability in human liver microsomes assessed as compound remaining at 0.5 uM incubated for 10 mins relative to control; assay type: ADME, Microsome; conditions: microsomes, 10 min, 0.5 µM
[6] = target: Tryptophan 2,3-dioxygenase (Homo sapiens, UniProt P48775); assay: Inhibition of TDO (unknown origin) expressed in HEK cells; assay type: cell-based; conditions: hek
Chain of Tryptophan 2,3-dioxygenase (P48775 whole entry): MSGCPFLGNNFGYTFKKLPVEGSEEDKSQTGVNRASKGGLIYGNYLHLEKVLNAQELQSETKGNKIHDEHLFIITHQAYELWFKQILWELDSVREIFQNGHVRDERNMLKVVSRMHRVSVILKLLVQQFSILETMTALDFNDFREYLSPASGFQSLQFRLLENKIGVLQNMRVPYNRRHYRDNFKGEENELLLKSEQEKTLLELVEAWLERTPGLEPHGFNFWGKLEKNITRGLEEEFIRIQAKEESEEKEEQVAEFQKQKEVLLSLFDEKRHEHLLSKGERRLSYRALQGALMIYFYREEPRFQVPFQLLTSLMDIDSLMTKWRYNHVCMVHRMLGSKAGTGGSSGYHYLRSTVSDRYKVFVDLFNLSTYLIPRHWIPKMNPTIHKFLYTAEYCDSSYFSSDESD

Chain of Voltage-gated inwardly rectifying potassium channel KCNH2 (Q12809 whole entry): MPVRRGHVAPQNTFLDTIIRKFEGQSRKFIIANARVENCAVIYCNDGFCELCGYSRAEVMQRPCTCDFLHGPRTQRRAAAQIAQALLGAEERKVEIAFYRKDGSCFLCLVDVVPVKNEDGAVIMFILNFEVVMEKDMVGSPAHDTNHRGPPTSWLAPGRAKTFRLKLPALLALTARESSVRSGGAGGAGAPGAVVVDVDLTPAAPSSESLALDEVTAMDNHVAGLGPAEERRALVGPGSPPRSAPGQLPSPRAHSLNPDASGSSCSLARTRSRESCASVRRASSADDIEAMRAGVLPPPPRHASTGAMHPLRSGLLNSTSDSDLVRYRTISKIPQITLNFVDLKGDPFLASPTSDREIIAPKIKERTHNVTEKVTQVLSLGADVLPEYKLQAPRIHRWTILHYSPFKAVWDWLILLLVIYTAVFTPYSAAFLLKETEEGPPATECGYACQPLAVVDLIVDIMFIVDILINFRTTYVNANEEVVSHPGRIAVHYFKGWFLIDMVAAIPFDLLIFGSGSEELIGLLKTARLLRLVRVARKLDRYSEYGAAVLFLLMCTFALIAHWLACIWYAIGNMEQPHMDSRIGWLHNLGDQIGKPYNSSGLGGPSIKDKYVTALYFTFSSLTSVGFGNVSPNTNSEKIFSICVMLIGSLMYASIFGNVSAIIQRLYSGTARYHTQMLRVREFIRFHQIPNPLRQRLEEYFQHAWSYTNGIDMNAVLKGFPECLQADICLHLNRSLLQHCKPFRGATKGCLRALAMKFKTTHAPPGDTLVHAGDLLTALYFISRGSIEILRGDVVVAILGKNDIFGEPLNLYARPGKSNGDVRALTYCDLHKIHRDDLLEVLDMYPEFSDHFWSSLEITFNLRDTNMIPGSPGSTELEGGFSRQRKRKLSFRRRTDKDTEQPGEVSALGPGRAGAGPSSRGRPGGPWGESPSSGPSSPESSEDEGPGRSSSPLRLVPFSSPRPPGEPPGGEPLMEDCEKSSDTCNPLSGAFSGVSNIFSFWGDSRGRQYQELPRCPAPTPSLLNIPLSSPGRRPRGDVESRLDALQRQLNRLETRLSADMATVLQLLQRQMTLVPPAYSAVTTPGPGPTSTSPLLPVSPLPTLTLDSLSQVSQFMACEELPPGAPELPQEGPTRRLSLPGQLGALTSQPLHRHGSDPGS
Chain of Indoleamine 2,3-dioxygenase 1 (P14902 whole entry): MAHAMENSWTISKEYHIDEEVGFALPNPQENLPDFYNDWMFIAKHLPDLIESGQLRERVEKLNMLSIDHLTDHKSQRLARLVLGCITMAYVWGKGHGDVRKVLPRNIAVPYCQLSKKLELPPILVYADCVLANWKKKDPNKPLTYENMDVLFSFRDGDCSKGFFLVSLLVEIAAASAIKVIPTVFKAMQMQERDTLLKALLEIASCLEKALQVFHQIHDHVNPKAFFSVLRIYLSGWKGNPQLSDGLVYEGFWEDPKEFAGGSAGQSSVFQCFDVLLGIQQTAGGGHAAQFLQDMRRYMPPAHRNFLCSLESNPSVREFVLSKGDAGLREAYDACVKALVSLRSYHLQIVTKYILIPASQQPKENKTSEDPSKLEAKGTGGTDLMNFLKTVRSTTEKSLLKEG

IC50 [1]: 4.6 nM | Stability [3]: 38% | IC50 (Cytochrome P450 2B6): 780 nM | Stability [4]: 40% | Stability [5]: 73% | IC50 [6]: > 6000 nM
Structure (SMILES): Cc1ccc(NC(=O)Nc2cc(-c3ccccc3-c3nc(=O)[nH]o3)cc3c2OCCCC3c2ccccc2)cc1 (stereo in doubt; 20)
inhibition (INH) [2]: 18%
